Assay results taken from ChEMBL document CHEMBL1255512, “Pyrazolo[1,5-a]pyrimidine acetamides: 4-Phenyl alkyl ether derivatives as potent ligands for the 18 kDa translocator protein (TSPO)” (Bioorg Med Chem Lett, 2010).

What was measured:
[1] = molecular target: T1, Kappa-type opioid receptor (Homo sapiens, UniProt P41145); assay: Inhibition of kappa opioid receptor at 10 uM
[2] = molecular target: 5-hydroxytryptamine receptor 3A (Homo sapiens) (UniProt P46098); assay: Inhibition of 5-HT3 receptor at 10 uM
Chain of 5-hydroxytryptamine receptor 3A (Homo sapiens) (P46098 whole entry): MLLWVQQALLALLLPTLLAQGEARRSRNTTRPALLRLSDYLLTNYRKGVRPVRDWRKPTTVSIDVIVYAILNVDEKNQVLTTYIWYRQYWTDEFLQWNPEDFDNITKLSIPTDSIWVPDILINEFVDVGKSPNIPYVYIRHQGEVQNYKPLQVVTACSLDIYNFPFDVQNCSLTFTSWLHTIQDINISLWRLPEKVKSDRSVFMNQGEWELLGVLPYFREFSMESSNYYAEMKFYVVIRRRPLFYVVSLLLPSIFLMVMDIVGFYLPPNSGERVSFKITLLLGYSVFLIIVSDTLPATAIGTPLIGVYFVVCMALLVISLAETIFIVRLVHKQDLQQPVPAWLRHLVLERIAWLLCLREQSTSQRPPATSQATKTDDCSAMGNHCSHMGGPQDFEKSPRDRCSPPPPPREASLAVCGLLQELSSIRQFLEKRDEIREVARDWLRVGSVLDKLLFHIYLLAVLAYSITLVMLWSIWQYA

[3] = molecular target: T2, 5-hydroxytryptamine receptor 2B (Homo sapiens, UniProt P41595); assay: Inhibition of 5-HT2B receptor at 10 uM
T2 sequence (P41595 whole entry): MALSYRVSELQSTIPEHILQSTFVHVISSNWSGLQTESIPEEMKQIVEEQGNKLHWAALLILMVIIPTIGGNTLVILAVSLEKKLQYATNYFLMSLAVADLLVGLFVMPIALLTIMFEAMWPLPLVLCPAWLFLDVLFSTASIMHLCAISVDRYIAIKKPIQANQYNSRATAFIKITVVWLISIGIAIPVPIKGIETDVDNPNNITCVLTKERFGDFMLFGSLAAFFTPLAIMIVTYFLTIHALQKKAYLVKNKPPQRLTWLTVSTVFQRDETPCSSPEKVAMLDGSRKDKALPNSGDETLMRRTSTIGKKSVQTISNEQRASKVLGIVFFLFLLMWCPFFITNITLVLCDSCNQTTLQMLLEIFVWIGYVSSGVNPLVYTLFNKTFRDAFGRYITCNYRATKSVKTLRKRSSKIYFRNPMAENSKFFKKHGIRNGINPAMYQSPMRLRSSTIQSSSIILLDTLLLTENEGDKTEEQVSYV

[4] = molecular target: T3, Alpha-2C adrenergic receptor (Homo sapiens) (UniProt P18825); assay: Inhibition of Alpha-2C adrenergic receptor at 10 uM
T3 sequence (whole entry): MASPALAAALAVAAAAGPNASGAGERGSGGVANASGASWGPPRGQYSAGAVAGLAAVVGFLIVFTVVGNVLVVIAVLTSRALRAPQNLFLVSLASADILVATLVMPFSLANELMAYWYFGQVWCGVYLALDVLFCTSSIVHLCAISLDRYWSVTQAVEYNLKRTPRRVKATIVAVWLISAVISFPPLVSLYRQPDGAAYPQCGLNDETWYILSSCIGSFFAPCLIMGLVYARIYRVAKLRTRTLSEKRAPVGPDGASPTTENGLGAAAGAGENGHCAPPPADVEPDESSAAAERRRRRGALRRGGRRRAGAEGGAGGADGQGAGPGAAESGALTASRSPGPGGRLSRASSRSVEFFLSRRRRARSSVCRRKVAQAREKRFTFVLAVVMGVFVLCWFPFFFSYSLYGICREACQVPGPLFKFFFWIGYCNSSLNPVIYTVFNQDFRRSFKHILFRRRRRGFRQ

[5] = molecular target: Muscarinic acetylcholine receptor M3 (Homo sapiens) (UniProt P20309); assay: Inhibition of M3 muscarinic receptor at 10 uM
Chain of Muscarinic acetylcholine receptor M3 (Homo sapiens) (P20309 whole entry, looked up): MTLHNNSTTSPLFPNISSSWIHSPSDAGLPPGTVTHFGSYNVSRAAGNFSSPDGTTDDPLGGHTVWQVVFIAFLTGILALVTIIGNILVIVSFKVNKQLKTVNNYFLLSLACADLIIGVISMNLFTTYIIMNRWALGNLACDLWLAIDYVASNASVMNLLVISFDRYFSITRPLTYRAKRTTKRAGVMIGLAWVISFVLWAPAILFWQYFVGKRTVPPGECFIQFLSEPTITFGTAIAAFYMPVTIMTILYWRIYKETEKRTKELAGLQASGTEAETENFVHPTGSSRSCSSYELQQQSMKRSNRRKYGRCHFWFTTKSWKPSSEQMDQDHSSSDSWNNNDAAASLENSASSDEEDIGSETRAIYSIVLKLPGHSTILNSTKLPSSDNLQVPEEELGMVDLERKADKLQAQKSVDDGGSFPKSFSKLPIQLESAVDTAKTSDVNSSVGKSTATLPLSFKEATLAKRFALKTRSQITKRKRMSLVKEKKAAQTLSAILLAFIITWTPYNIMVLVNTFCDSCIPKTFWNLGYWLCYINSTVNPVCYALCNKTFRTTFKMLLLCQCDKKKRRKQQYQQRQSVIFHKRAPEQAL

[6] = molecular target: T4, Delta-type opioid receptor (Homo sapiens, UniProt P41143); assay: Inhibition of delta opioid receptor at 10 uM
T4 sequence (P41143 whole entry): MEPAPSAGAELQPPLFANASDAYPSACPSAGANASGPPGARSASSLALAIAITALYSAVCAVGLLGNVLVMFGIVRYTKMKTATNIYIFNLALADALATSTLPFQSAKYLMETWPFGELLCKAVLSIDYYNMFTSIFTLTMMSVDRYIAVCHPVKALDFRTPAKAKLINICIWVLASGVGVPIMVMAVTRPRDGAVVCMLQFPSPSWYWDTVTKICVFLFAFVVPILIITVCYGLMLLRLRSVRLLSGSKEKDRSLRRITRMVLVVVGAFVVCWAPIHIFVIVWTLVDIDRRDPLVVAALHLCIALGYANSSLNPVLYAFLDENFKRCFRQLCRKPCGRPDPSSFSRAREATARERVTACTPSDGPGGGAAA

[7] = molecular target: Alpha-2A adrenergic receptor (Homo sapiens) (UniProt P08913); assay: Inhibition of alpha2A adrenergic receptor at 10 uM
Chain of Alpha-2A adrenergic receptor (Homo sapiens) (P08913 whole entry): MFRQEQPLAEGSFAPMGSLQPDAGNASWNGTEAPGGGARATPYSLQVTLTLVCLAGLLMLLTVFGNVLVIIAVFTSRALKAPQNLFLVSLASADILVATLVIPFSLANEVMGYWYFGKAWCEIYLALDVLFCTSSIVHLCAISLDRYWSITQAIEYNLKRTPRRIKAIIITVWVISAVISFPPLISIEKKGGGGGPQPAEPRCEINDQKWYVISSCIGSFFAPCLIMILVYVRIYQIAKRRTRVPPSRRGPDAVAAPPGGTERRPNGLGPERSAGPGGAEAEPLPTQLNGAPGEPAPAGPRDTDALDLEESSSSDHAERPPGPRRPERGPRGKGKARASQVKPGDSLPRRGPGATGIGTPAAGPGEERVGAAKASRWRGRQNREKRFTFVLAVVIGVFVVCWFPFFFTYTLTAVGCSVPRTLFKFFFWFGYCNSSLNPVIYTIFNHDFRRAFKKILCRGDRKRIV

[8] = molecular target: T4, Delta-type opioid receptor; assay: Inhibition of delta opioid receptor
[9] = molecular target: T1, Kappa-type opioid receptor; assay: Inhibition of kappa opioid receptor
[10] = molecular target: Alpha-1B adrenergic receptor (Homo sapiens, UniProt P35368); assay: Inhibition of Alpha-1B adrenergic receptor
Chain of Alpha-1B adrenergic receptor (P35368 whole entry): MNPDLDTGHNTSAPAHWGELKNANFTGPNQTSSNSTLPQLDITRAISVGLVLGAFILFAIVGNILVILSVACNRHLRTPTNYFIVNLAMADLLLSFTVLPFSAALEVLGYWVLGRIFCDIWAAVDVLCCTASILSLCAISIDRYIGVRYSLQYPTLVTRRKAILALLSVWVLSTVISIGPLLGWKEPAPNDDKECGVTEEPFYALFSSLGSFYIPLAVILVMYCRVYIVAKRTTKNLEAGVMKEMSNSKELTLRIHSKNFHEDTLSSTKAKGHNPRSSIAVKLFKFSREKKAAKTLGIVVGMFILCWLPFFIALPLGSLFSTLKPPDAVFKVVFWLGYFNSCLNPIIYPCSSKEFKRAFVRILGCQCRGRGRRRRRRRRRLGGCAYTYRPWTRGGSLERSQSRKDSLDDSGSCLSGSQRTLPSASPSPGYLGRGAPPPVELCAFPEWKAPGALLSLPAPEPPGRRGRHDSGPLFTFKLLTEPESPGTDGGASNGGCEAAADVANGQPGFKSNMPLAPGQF

[11] = molecular target: T2, 5-hydroxytryptamine receptor 2B; assay: Inhibition of 5-HT2B receptor

T1 sequence (P41145 whole entry): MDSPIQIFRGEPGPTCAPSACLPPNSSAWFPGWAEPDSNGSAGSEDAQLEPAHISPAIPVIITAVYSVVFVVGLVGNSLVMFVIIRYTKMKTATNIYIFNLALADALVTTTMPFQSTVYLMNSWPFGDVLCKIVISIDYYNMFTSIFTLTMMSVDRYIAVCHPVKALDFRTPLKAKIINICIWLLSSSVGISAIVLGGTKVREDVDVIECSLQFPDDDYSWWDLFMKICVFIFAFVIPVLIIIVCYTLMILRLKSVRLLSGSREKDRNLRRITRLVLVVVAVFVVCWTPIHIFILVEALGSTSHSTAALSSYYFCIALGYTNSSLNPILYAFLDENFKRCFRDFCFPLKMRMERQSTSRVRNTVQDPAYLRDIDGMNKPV

SMILES | inhibition [1] | inhibition [2] | inhibition [3] | inhibition [4] | inhibition [5] | inhibition [6] | inhibition [7] | Ki [8] | Ki [9] | Ki [10] | Ki [11]
C#CCOc1ccc(-c2nn3c(C)cc(C)nc3c2CC(=O)N(CC)CC)cc1 | < 50% | < 50% | < 50% | < 50% | < 50% | < 50% | < 50% |  |  |  | 
CCCOc1ccc(-c2nn3c(C)cc(C)nc3c2CC(=O)N(CC)CC)cc1 |  |  | < 50% | < 50% | < 50% |  |  | > 10 µM | > 10 µM | > 10 µM | 
CCCCOc1ccc(-c2nn3c(C)cc(C)nc3c2CC(=O)N(CC)CC)cc1 |  |  |  | < 50% | < 50% |  | < 50% | > 10 µM | > 10 µM |  | 8.36 µM
CCOc1ccc(-c2nn3c(C)cc(C)nc3c2CC(=O)N(CC)CC)cc1 | < 50% | < 50% | < 50% | < 50% | < 50% | < 50% |  |  |  |  | 
